Test results as given in the supplement of paper PMC10307832.

Assays:
Test in all cases: relative viability (nuclei count vs DMSO), 5 days (fraction); higher = more cells survive
[1] = compound: Cn1cc(-c2cnn3c(N)c(Br)c([C@@H]4CCCNC4)nc23)cn1 + CC1(C)CCC(c2ccc(Cl)cc2)=C(CN2CCN(c3ccc(C(=O)NS(=O)(=O)c4ccc(N[C@H](CCN5CCOCC5)CSc5ccccc5)c(S(=O)(=O)C(F)(F)F)c4)cc3)CC2)C1 [Navitoclax] (partner 0.5 µM)
Method in brief: (§1)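 Lung cancer cell lines in 1536-well plates were dosed by pin tool the day after seeding, either with one drug alone or with a fixed anchor-drug dose plus five library-drug doses (not always all listed) in √10 steps. After 5 days, cells were fixed and their nuclei stained in one step (final 0.05% Triton X-100, 1% formaldehyde, 1 ug/ml Hoechst), then counted on 4× images. Relative viability is the nuclei count in treated wells divided by that in vehicle wells. Values are medians of duplicate plates.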

[2] = compound: Cn1cc(-c2cnn3c(N)c(Br)c([C@@H]4CCCNC4)nc23)cn1 + C[C@@H](Oc1cc(-c2cnn(C3CCNCC3)c2)cnc1N)c1c(Cl)ccc(F)c1Cl [Crizotinib] (partner 1 µM)
Method in brief: as §1

[3] = compound: Cn1cc(-c2cnn3c(N)c(Br)c([C@@H]4CCCNC4)nc23)cn1 + Cc1nc(Nc2ncc(C(=O)Nc3c(C)cccc3Cl)s2)cc(N2CCN(CCO)CC2)n1 [Dasatinib] (partner 0.075 µM)
Method in brief: as §1

[4] = compound: Cn1cc(-c2cnn3c(N)c(Br)c([C@@H]4CCCNC4)nc23)cn1 + O=C(CCCCCCC(=O)Nc1ccccc1)NO [Vorinostat] (partner 1 µM)
Method in brief: as §1

SK-MES-1
relative viability ([1]; first compound 0.05 µM): 1.29 | relative viability ([1]; first compound 0.1581 µM): 1.25 | relative viability ([1]; first compound 0.5 µM): 1.11 | relative viability ([1]; first compound 1.581 µM): 1.02 | relative viability ([1]; first compound 5 µM): 0.352 | relative viability ([2]; first compound 0.05 µM): 1.07 | relative viability ([2]; first compound 0.1581 µM): 1.11 | relative viability ([2]; first compound 0.5 µM): 0.918 | relative viability ([2]; first compound 1.581 µM): 0.934 | relative viability ([2]; first compound 5 µM): 0.366 | relative viability ([3]; first compound 0.05 µM): 0.359 | relative viability ([3]; first compound 0.1581 µM): 0.308 | relative viability ([3]; first compound 0.5 µM): 0.236 | relative viability ([3]; first compound 1.581 µM): 0.231 | relative viability ([3]; first compound 5 µM): 0.118 | relative viability ([4]; first compound 0.05 µM): 1.22 | relative viability ([4]; first compound 0.1581 µM): 0.877 | relative viability ([4]; first compound 0.5 µM): 0.788 | relative viability ([4]; first compound 1.581 µM): 0.38 | relative viability ([4]; first compound 5 µM): 0.216

NCI-H1666
relative viability ([1]; first compound 0.05 µM): 0.906 | relative viability ([1]; first compound 0.1581 µM): 0.956 | relative viability ([1]; first compound 0.5 µM): 0.871 | relative viability ([1]; first compound 1.581 µM): 0.829 | relative viability ([1]; first compound 5 µM): 0.842 | relative viability ([2]; first compound 0.05 µM): 1.03 | relative viability ([2]; first compound 0.1581 µM): 0.906 | relative viability ([2]; first compound 0.5 µM): 1.02 | relative viability ([2]; first compound 1.581 µM): 1 | relative viability ([2]; first compound 5 µM): 0.869 | relative viability ([3]; first compound 0.05 µM): 0.818 | relative viability ([3]; first compound 0.1581 µM): 0.734 | relative viability ([3]; first compound 0.5 µM): 0.642 | relative viability ([3]; first compound 1.581 µM): 0.756 | relative viability ([3]; first compound 5 µM): 0.785 | relative viability ([4]; first compound 0.05 µM): 1.16 | relative viability ([4]; first compound 0.1581 µM): 1.03 | relative viability ([4]; first compound 0.5 µM): 0.886 | relative viability ([4]; first compound 1.581 µM): 0.906 | relative viability ([4]; first compound 5 µM): 0.844

NCI-H1355
relative viability ([1]; first compound 0.05 µM): 0.964 | relative viability ([1]; first compound 0.1581 µM): 0.945 | relative viability ([1]; first compound 0.5 µM): 0.926 | relative viability ([1]; first compound 1.581 µM): 0.986 | relative viability ([1]; first compound 5 µM): 0.857 | relative viability ([2]; first compound 0.05 µM): 0.984 | relative viability ([2]; first compound 0.1581 µM): 1.12 | relative viability ([2]; first compound 0.5 µM): 1.07 | relative viability ([2]; first compound 1.581 µM): 1.01 | relative viability ([2]; first compound 5 µM): 0.698 | relative viability ([3]; first compound 0.05 µM): 0.705 | relative viability ([3]; first compound 0.1581 µM): 0.705 | relative viability ([3]; first compound 0.5 µM): 0.596 | relative viability ([3]; first compound 1.581 µM): 0.652 | relative viability ([3]; first compound 5 µM): 0.566 | relative viability ([4]; first compound 0.05 µM): 0.645 | relative viability ([4]; first compound 0.1581 µM): 0.743 | relative viability ([4]; first compound 0.5 µM): 0.664 | relative viability ([4]; first compound 1.581 µM): 0.524 | relative viability ([4]; first compound 5 µM): 0.564

HCC-827
relative viability ([1]; first compound 0.05 µM): 1.03 | relative viability ([1]; first compound 0.1581 µM): 1.04 | relative viability ([1]; first compound 0.5 µM): 1.04 | relative viability ([1]; first compound 1.581 µM): 1.01 | relative viability ([1]; first compound 5 µM): 0.99 | relative viability ([2]; first compound 0.05 µM): 0.929 | relative viability ([2]; first compound 0.1581 µM): 1 | relative viability ([2]; first compound 0.5 µM): 0.909 | relative viability ([2]; first compound 1.581 µM): 0.899 | relative viability ([2]; first compound 5 µM): 0.871 | relative viability ([3]; first compound 0.05 µM): 0.32 | relative viability ([3]; first compound 0.1581 µM): 0.392 | relative viability ([3]; first compound 0.5 µM): 0.276 | relative viability ([3]; first compound 1.581 µM): 0.295 | relative viability ([3]; first compound 5 µM): 0.193 | relative viability ([4]; first compound 0.05 µM): 0.741 | relative viability ([4]; first compound 0.1581 µM): 0.929 | relative viability ([4]; first compound 0.5 µM): 1.02 | relative viability ([4]; first compound 1.581 µM): 0.917 | relative viability ([4]; first compound 5 µM): 0.797

HARA
relative viability ([1]; first compound 0.05 µM): 1.11 | relative viability ([1]; first compound 0.1581 µM): 1.21 | relative viability ([1]; first compound 0.5 µM): 1.25 | relative viability ([1]; first compound 1.581 µM): 1.05 | relative viability ([1]; first compound 5 µM): 0.725 | relative viability ([2]; first compound 0.05 µM): 0.935 | relative viability ([2]; first compound 0.1581 µM): 1.12 | relative viability ([2]; first compound 0.5 µM): 0.987 | relative viability ([2]; first compound 1.581 µM): 0.842 | relative viability ([2]; first compound 5 µM): 0.369 | relative viability ([3]; first compound 0.05 µM): 0.37 | relative viability ([3]; first compound 0.1581 µM): 0.316 | relative viability ([3]; first compound 0.5 µM): 0.332 | relative viability ([3]; first compound 1.581 µM): 0.252 | relative viability ([3]; first compound 5 µM): 0.157 | relative viability ([4]; first compound 0.05 µM): 0.62 | relative viability ([4]; first compound 0.1581 µM): 0.511 | relative viability ([4]; first compound 0.5 µM): 0.511 | relative viability ([4]; first compound 1.581 µM): 0.433 | relative viability ([4]; first compound 5 µM): 0.556

HCC-366
relative viability ([1]; first compound 0.05 µM): 1.11 | relative viability ([1]; first compound 0.1581 µM): 1.07 | relative viability ([1]; first compound 0.5 µM): 1.09 | relative viability ([1]; first compound 1.581 µM): 0.918 | relative viability ([1]; first compound 5 µM): 0.771 | relative viability ([2]; first compound 0.05 µM): 0.53 | relative viability ([2]; first compound 0.1581 µM): 0.737 | relative viability ([2]; first compound 0.5 µM): 0.474 | relative viability ([2]; first compound 1.581 µM): 0.405 | relative viability ([2]; first compound 5 µM): 0.209 | relative viability ([3]; first compound 0.05 µM): 0.644 | relative viability ([3]; first compound 0.1581 µM): 0.562 | relative viability ([3]; first compound 0.5 µM): 0.628 | relative viability ([3]; first compound 1.581 µM): 0.467 | relative viability ([3]; first compound 5 µM): 0.22 | relative viability ([4]; first compound 0.05 µM): 0.333 | relative viability ([4]; first compound 0.1581 µM): 0.402 | relative viability ([4]; first compound 0.5 µM): 0.337 | relative viability ([4]; first compound 1.581 µM): 0.301 | relative viability ([4]; first compound 5 µM): 0.211

NCI-H322M
relative viability ([1]; first compound 0.05 µM): 1.08 | relative viability ([1]; first compound 0.1581 µM): 1.24 | relative viability ([1]; first compound 0.5 µM): 1.18 | relative viability ([1]; first compound 1.581 µM): 1.2 | relative viability ([1]; first compound 5 µM): 1.19 | relative viability ([2]; first compound 0.05 µM): 0.874 | relative viability ([2]; first compound 0.1581 µM): 0.962 | relative viability ([2]; first compound 0.5 µM): 0.884 | relative viability ([2]; first compound 1.581 µM): 0.785 | relative viability ([2]; first compound 5 µM): 0.576 | relative viability ([3]; first compound 0.05 µM): 0.268 | relative viability ([3]; first compound 0.1581 µM): 0.279 | relative viability ([3]; first compound 0.5 µM): 0.268 | relative viability ([3]; first compound 1.581 µM): 0.231 | relative viability ([3]; first compound 5 µM): 0.245 | relative viability ([4]; first compound 0.05 µM): 0.871 | relative viability ([4]; first compound 0.1581 µM): 0.831 | relative viability ([4]; first compound 0.5 µM): 0.754 | relative viability ([4]; first compound 1.581 µM): 0.626 | relative viability ([4]; first compound 5 µM): 0.394

NCI-H2347
relative viability ([1]; first compound 0.05 µM): 0.742 | relative viability ([1]; first compound 0.1581 µM): 0.818 | relative viability ([1]; first compound 0.5 µM): 0.735 | relative viability ([1]; first compound 1.581 µM): 0.576 | relative viability ([1]; first compound 5 µM): 0.678 | relative viability ([2]; first compound 0.05 µM): 0.63 | relative viability ([2]; first compound 0.1581 µM): 0.588 | relative viability ([2]; first compound 0.5 µM): 0.788 | relative viability ([2]; first compound 1.581 µM): 0.668 | relative viability ([2]; first compound 5 µM): 0.637 | relative viability ([3]; first compound 0.05 µM): 0.319 | relative viability ([3]; first compound 0.1581 µM): 0.255 | relative viability ([3]; first compound 0.5 µM): 0.285 | relative viability ([3]; first compound 1.581 µM): 0.324 | relative viability ([3]; first compound 5 µM): 0.209 | relative viability ([4]; first compound 0.05 µM): 0.525 | relative viability ([4]; first compound 0.1581 µM): 0.585 | relative viability ([4]; first compound 0.5 µM): 0.511 | relative viability ([4]; first compound 1.581 µM): 0.482 | relative viability ([4]; first compound 5 µM): 0.4
